Measurements as given in US12139520B2 (priority 2020, dated 2024).
Bridge positions count the residues as written; N and C are the ends. Square brackets hold non-standard residues; d marks the D form. Peptide text beside a SMILES is read from it. Hyp = O=C(O)[C@@H]1C[C@@H](O)CN1; Cit = NC(=O)NCCC[C@H](N)C(=O)O

Legend:
[1] = Physical stability of peptide analogues (Thioflavin T fibrillation); assay type: physicochemical; conditions: maximum ThT signal normalized between hAMY maximum and buffer background; 40° C., shaking, four days; pH 7 per table title
In short: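 Peptides in 50 mM sodium acetate pH 4 or 50 mM sodium phosphate pH 7 were preincubated 1 h, mixed with 4 μM ThT, held at 40° C with 700 rpm shaking before each read. Fluorescence (ex 450/em 480 nm) every 10 min for four days; LOESS-smoothed maximum signal normalized in percent between hAMY and buffer.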

[2] = molecular target: T1, hAMY3 receptor (Homo sapiens, UniProt O60896+P30988); assay: cAMP assay for in vitro receptor activation, hAMY3-R; assay type: cell-based; conditions: cAMP assay, hAMY3 receptor; read-out: hAMY3R EC50
T1 sequence (P30988 25-474): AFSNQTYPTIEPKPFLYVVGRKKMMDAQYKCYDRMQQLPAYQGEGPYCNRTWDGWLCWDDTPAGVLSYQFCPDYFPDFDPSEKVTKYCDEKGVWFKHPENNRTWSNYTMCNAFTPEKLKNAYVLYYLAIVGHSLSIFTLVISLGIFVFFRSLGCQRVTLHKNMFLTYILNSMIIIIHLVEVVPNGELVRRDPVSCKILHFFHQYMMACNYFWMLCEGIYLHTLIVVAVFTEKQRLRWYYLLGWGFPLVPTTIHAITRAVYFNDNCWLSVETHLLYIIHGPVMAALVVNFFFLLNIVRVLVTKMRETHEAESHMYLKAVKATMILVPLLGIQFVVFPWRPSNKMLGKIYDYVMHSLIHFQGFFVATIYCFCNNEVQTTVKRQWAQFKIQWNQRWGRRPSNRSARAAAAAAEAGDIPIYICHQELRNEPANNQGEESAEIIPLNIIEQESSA
T1 sequence (O60896 24-148 partner): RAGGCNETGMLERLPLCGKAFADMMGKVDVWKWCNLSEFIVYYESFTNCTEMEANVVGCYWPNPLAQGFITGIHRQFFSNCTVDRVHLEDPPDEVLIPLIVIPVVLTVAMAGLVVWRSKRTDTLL
In short: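 Graded compound concentrations were applied for 30 min at room temperature to stably hAMY3-expressing cells in DPBS, 0.05% casein, 0.5 mM IBMX; cAMP detected by TR-FRET.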

[3] = molecular target: hAM1 receptor (Homo sapiens, UniProt O60895+Q16602); assay: cAMP assay for in vitro receptor activation, hAM1-R; assay type: cell-based; conditions: cAMP assay, hAM1 receptor; read-out: hAM1R EC50
Chain of hAM1 receptor (Q16602 23-461): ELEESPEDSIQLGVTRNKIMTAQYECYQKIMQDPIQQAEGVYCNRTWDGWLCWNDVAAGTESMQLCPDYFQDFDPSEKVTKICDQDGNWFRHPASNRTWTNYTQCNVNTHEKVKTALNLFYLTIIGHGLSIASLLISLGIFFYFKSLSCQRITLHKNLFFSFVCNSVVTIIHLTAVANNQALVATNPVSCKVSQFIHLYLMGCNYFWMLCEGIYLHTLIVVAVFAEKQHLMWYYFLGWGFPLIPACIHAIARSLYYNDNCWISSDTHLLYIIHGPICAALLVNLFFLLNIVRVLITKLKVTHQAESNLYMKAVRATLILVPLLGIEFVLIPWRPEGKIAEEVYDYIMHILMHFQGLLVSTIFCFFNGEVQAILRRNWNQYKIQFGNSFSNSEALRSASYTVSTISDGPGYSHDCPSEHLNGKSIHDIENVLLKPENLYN
Chain of hAM1 receptor (O60895 43-175 partner): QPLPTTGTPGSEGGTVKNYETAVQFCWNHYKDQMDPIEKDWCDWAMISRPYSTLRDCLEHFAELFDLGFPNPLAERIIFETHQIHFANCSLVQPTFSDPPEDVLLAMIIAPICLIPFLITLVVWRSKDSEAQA
In short: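 A subcloned monoclonal line stably expressing hAM1 receptor is thawed and plated at 8000 cells/well. The assay buffer is DPBS with 0.05% casein and 0.5 mM IBMX, and receptor activation is followed by cAMP levels.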

| Max ThT signal (%) [1] | EC50 [2] | EC50 [3] | Structure (SMILES) |
| --- | --- | --- | --- |
| 9.100% | 0.008 nM | > 5000 nM | CC[C@H](C)[C@H](NC(=O)[C@H](CCC(N)=O)NC(=O)[C@H](Cc1c[nH]cn1)NC(=O)[C@H](C)NC(=O)[C@H](CC(C)C)NC(=O)[C@H](CCCNC(=N)N)NC(=O)[C@H](CCC(N)=O)NC(=O)[C@@H](NC(=O)[C@@H](NC(=O)[C@@H]1CSSC[C@H](NC(=O)[C@@H](N)CCCCN)C(=O)N[C@@H](CC(N)=O)C(=O)N[C@@H]([C@@H](C)O)C(=O)N[C@@H](C)C(=O)N[C@@H]([C@@H](C)O)C(=O)N1)[C@@H](C)O)C(C)C)C(=O)N[C@@H](Cc1ccc(O)cc1)C(=O)N[C@@H](CCC(N)=O)C(=O)N[C@@H](Cc1ccccc1)C(=O)N[C@H](C(=O)N[C@@H](CC(=O)O)C(=O)N[C@@H](CCCCN)C(=O)N[C@@H](CC(=O)O)C(=O)N[C@@H](CCCCN)C(=O)N[C@@H](CC(=O)O)C(=O)N[C@@H](CC(N)=O)C(=O)N[C@H](C(=O)N[C@@H](C)C(=O)N1CCC[C@H]1C(=O)N[C@@H](CCCNC(=N)N)C(=O)N[C@H](C(=O)N[C@@H](CCCCN)C(=O)N[C@H](C(=O)NCC(=O)N[C@@H](CO)C(=O)N[C@@H](CC(N)=O)C(=O)NCC(=O)N1C[C@H](O)C[C@H]1C(N)=O)C(C)C)[C@@H](C)O)C(C)C)[C@@H](C)O [compound 20] (H-KCNTATCTVQRLAHQIYQFTDKDKDNVAPRTKVGSNG[Hyp]-NH2; disulfide 2-7; N-terminus assumed) |
| 11.900% | 0.008 nM | > 5000 nM | CC[C@H](C)[C@H](NC(=O)[C@H](CCC(N)=O)NC(=O)[C@H](Cc1c[nH]cn1)NC(=O)[C@H](C)NC(=O)[C@H](CC(C)C)NC(=O)[C@H](Cc1c[nH]c2ccccc12)NC(=O)[C@H](CCC(N)=O)NC(=O)[C@@H](NC(=O)[C@@H](NC(=O)[C@@H]1CSSC[C@H](NC(=O)[C@@H](N)CCCCN)C(=O)N[C@@H](CC(N)=O)C(=O)N[C@@H]([C@@H](C)O)C(=O)N[C@@H](C)C(=O)N[C@@H]([C@@H](C)O)C(=O)N1)[C@@H](C)O)C(C)C)C(=O)N[C@@H](Cc1ccc(O)cc1)C(=O)N[C@@H](CCC(N)=O)C(=O)N[C@@H](Cc1ccccc1)C(=O)N[C@H](C(=O)N[C@@H](CC(=O)O)C(=O)N[C@@H](CCCCN)C(=O)N[C@@H](CC(=O)O)C(=O)N[C@@H](CCCCN)C(=O)N[C@@H](C)C(=O)N[C@@H](CC(N)=O)C(=O)N[C@H](C(=O)N[C@@H](C)C(=O)N1CCC[C@H]1C(=O)N1CCC[C@H]1C(=O)N[C@H](C(=O)N[C@@H](CC(N)=O)C(=O)N[C@H](C(=O)NCC(=O)N[C@@H](CO)C(=O)N[C@@H](CC(N)=O)C(=O)NCC(=O)N1C[C@H](O)C[C@H]1C(N)=O)C(C)C)[C@@H](C)O)C(C)C)[C@@H](C)O [compound 314] (H-KCNTATCTVQWLAHQIYQFTDKDKANVAPPTNVGSNG[Hyp]-NH2; disulfide 2-7; N-terminus assumed) |
| 1.350% | 0.004 nM | > 5000 nM | CC[C@H](C)[C@H](NC(=O)[C@H](CCC(N)=O)NC(=O)[C@H](CC(=O)O)NC(=O)[C@H](C)NC(=O)[C@H](CC(C)C)NC(=O)[C@H](CCCNC(N)=O)NC(=O)[C@H](C)NC(=O)[C@@H](NC(=O)[C@@H](NC(=O)[C@@H]1CSSC[C@H](NC(=O)[C@@H](N)CCCCN)C(=O)N[C@@H](CC(N)=O)C(=O)N[C@@H]([C@@H](C)O)C(=O)N[C@@H](CO)C(=O)N[C@@H]([C@@H](C)O)C(=O)N1)[C@@H](C)O)C(C)C)C(=O)N[C@H](C(=O)N[C@@H](CCC(N)=O)C(=O)N[C@@H](Cc1ccccc1)C(=O)N[C@@H](CO)C(=O)N[C@@H](CC(=O)O)C(=O)N[C@@H](CCCCN)C(=O)N[C@@H](CC(=O)O)C(=O)N[C@@H](CCCCN)C(=O)N[C@@H](C)C(=O)N[C@@H](CC(N)=O)C(=O)N[C@H](C(=O)N[C@@H](CO)C(=O)N1CCC[C@H]1C(=O)N1CCC[C@H]1C(=O)N[C@H](C(=O)N[C@@H](CCC(=O)O)C(=O)N[C@H](C(=O)NCC(=O)N1CCC[C@H]1C(=O)N[C@@H](CC(N)=O)C(=O)N[C@@H](CO)C(=O)N1C[C@H](O)C[C@H]1C(N)=O)C(C)C)[C@@H](C)O)C(C)C)[C@@H](C)O [compound 247] (H-KCNTSTCTVA[Cit]LADQITQFSDKDKANVSPPTEVGPNS[Hyp]-NH2; disulfide 2-7; N-terminus assumed) |
| 7.600% | 0.011 nM | > 5000 nM | CC[C@H](C)[C@H](NC(=O)[C@H](CCC(N)=O)NC(=O)[C@H](Cc1c[nH]cn1)NC(=O)[C@H](C)NC(=O)[C@H](CC(C)C)NC(=O)[C@H](CCCNC(=N)N)NC(=O)[C@H](CCC(N)=O)NC(=O)[C@@H](NC(=O)[C@@H](NC(=O)[C@@H]1CSSC[C@H](NC(=O)[C@@H](N)CCCCN)C(=O)N[C@@H](CC(N)=O)C(=O)N[C@@H]([C@@H](C)O)C(=O)N[C@@H](C)C(=O)N[C@@H]([C@@H](C)O)C(=O)N1)[C@@H](C)O)C(C)C)C(=O)N[C@@H](Cc1ccc(O)cc1)C(=O)N[C@@H](CCC(N)=O)C(=O)N[C@@H](Cc1ccccc1)C(=O)N[C@H](C(=O)N[C@@H](CC(=O)O)C(=O)N[C@@H](CCCCN)C(=O)N[C@@H](CC(=O)O)C(=O)N[C@@H](CCCCN)C(=O)N[C@@H](CC(=O)O)C(=O)N[C@@H](C)C(=O)N[C@H](C(=O)N[C@@H](C)C(=O)N1CCC[C@H]1C(=O)N1CCC[C@H]1C(=O)N[C@H](C(=O)N[C@@H](CC(N)=O)C(=O)N[C@H](C(=O)NCC(=O)N[C@@H](CO)C(=O)N[C@@H](CC(N)=O)C(=O)NCC(=O)N1C[C@H](O)C[C@H]1C(N)=O)C(C)C)[C@@H](C)O)C(C)C)[C@@H](C)O [compound 52] (H-KCNTATCTVQRLAHQIYQFTDKDKDAVAPPTNVGSNG[Hyp]-NH2; disulfide 2-7; N-terminus assumed) |
| 4.100% | 0.006 nM | > 5000 nM | CC[C@H](C)[C@H](NC(=O)[C@H](CCC(N)=O)NC(=O)[C@H](CC(=O)O)NC(=O)[C@H](C)NC(=O)[C@H](CC(C)C)NC(=O)[C@H](CCCNC(N)=O)NC(=O)[C@H](C)NC(=O)[C@@H](NC(=O)[C@@H](NC(=O)[C@@H]1CSSC[C@H](NC(=O)[C@@H](N)CCCCN)C(=O)N[C@@H](CC(N)=O)C(=O)N[C@@H]([C@@H](C)O)C(=O)N[C@@H](CO)C(=O)N[C@@H]([C@@H](C)O)C(=O)N1)[C@@H](C)O)C(C)C)C(=O)N[C@H](C(=O)N[C@@H](CCC(N)=O)C(=O)N[C@@H](Cc1ccccc1)C(=O)N[C@@H](CO)C(=O)N[C@@H](CC(N)=O)C(=O)N[C@@H](CCCCN)C(=O)N[C@@H](CC(=O)O)C(=O)N[C@@H](CCCCN)C(=O)N[C@@H](C)C(=O)N[C@@H](CCC(N)=O)C(=O)N[C@H](C(=O)N[C@@H](CO)C(=O)N1CCC[C@H]1C(=O)N1CCC[C@H]1C(=O)N[C@H](C(=O)N[C@@H](CCC(=O)O)C(=O)N[C@H](C(=O)NCC(=O)N1CCC[C@H]1C(=O)N[C@@H](CC(N)=O)C(=O)N[C@@H](CO)C(=O)N1C[C@H](O)C[C@H]1C(N)=O)C(C)C)[C@@H](C)O)C(C)C)[C@@H](C)O [compound 244] (H-KCNTSTCTVA[Cit]LADQITQFSNKDKAQVSPPTEVGPNS[Hyp]-NH2; disulfide 2-7) |
| 17.300% | 0.047 nM | > 5000 nM | CC[C@H](C)[C@H](NC(=O)[C@H](CCC(N)=O)NC(=O)[C@H](Cc1c[nH]cn1)NC(=O)[C@H](C)NC(=O)[C@H](CC(C)C)NC(=O)[C@H](CCCNC(N)=O)NC(=O)[C@H](CCC(N)=O)NC(=O)[C@@H](NC(=O)[C@@H](NC(=O)[C@@H]1CSSC[C@H](NC(=O)CN)C(=O)N[C@@H](CCCNC(=N)N)C(=O)N[C@@H]([C@@H](C)O)C(=O)NCC(=O)N[C@@H]([C@@H](C)O)C(=O)N1)[C@@H](C)O)C(C)C)C(=O)N[C@@H](Cc1ccc(O)cc1)C(=O)N[C@@H](CCC(N)=O)C(=O)N[C@@H](Cc1ccccc1)C(=O)N[C@H](C(=O)N[C@@H](CC(=O)O)C(=O)N[C@@H](CCCCN)C(=O)N[C@@H](CC(=O)O)C(=O)N[C@@H](CCCCN)C(=O)N[C@@H](CC(=O)O)C(=O)N[C@@H](CC(N)=O)C(=O)N[C@H](C(=O)N[C@@H](C)C(=O)N1CCC[C@H]1C(=O)N[C@@H](CCCNC(=N)N)C(=O)N[C@@H](CO)C(=O)N[C@@H](CCCCN)C(=O)N[C@H](C(=O)NCC(=O)N1CCC[C@H]1C(=O)N[C@@H](CC(N)=O)C(=O)NCC(=O)N1C[C@H](O)C[C@H]1C(N)=O)C(C)C)C(C)C)[C@@H](C)O [compound 290] (H-GCRTGTCTVQ[Cit]LAHQIYQFTDKDKDNVAPRSKVGPNG[Hyp]-NH2; disulfide 2-7; N-terminus assumed) |
